Source: paper PMC8906008 (Antiviral Research, 2022)

target: SARS-CoV-2 nsp5 (nsp4-5-6 WT) (Severe acute respiratory syndrome coronavirus 2, UniProt P0DTD1); test: cell-based

| Compound | dose-response curve in Rev-Nluc assay |
| --- | --- |
| C1=C/COCc2cc(ccc2OCCN2CCCC2)Nc2nccc(n2)-c2cccc(c2)COC/1 [Compound #9, Pacritinib (SB1518)] | irregular pattern |

system: SARS-CoV-2 nsp4-5-6 C145A; test: not given; assay type: cell-based

| Compound | Secondary screen nsp5-CA RLU (%) |
| --- | --- |
| C1=C/COCc2cc(ccc2OCCN2CCCC2)Nc2nccc(n2)-c2cccc(c2)COC/1 [Compound #9, Pacritinib (SB1518)] | 98.3 ± 4.0% |
| CCOC(=O)C1=C(C)NC(C)=C(C(=O)OCC)C1c1ccccc1/C=C/C(=O)OC(C)(C)C [compound 3, Lacidipine] | 121.2 ± 7.4% |
| CC[C@@H]1C(=O)N(C)c2cnc(Nc3ccc(C(=O)N[C@H]4CC[C@H](N5CCN(CC6CC6)CC5)CC4)cc3OC)nc2N1C(C)C [compound 4, Volasertib (BI6727)] | >250% |
| COc1cc(NC(=O)Nc2cccc(CNC(=O)O[C@H]3CCOC3)c2)ccc1-c1cnco1 [compound 5, Merimepodib] | 110.4 ± 10.8% |
| Cc1cnc(Nc2ccc(OCCN3CCCC3)cc2)nc1Nc1cccc(S(=O)(=O)NC(C)(C)C)c1 [compound 6, Fedratinib (SAR302503)] | >250% |
| Cc1sc2c(c1C)C(c1ccc(Cl)cc1)=N[C@@H](CC(=O)Nc1ccc(O)cc1)c1nnc(C)n1-2 [compound 7, OTX015] | >250% |
| Cc1cnc(Nc2ccc(N3CCN(C)CC3)cc2)nc1Nc1cccc(S(=O)(=O)NC(C)(C)C)c1 [compound 8, TG101209] | >250% |
| O=C(Nc1c[nH]nc1-c1nc2ccc(CN3CCOCC3)cc2[nH]1)NC1CC1 [compound 10, AT9283] | 71.3 ± 8.3% |
| COCCOc1ccc2c(c1)ncn2-c1ccc2cccc(N3CCC(N)CC3)c2n1 [compound 12, CP 673451] | 144.6 ± 10.3% |
| CNCc1ccc(C)c(NC(=O)c2ccc(Nc3nc(-c4ccccc4)c4ccccc4n3)cc2)c1 [compound 16, BMS-833923 (XL139)] | 256.0 ± 74.0% |
| CC(C)(C)c1cnc(CSc2cnc(NC(=O)C3CCNCC3)s2)o1 [compound 17, SNS-032 (BMS-387032)] | 66.6 ± 3.4% |
| C=CC(=O)Nc1cccc(Nc2nc(Nc3ccc(N4CCN(C(C)=O)CC4)cc3OC)ncc2C(F)(F)F)c1 [compound 20, Rociletinib (CO-1686. AVL-301)] | 181.9 ± 10.4% |
| Cc1nc(Nc2ncc(C(=O)Nc3c(C)cccc3Cl)s2)cc(N2CCN(CCO)CC2)n1 [compound 21, Dasatinib (BMS-354825)] | 249.1 ± 19.9% |
| C=CC(=O)Nc1cc(Nc2nccc(-c3cn(C)c4ccccc34)n2)c(OC)cc1N(C)CCN(C)C [compound 23, Osimertinib (AZD9291)] | 43.2 ± 6.7% |
| O=C(NC(Cc1cc(=O)[nH]c2ccccc12)C(=O)O)c1ccc(Cl)cc1 (stereo not drawn) [compound 43, Rebamipide] | 71.6 ± 6.5% |
| CC(C)(C(=O)c1cccnc1)c1cccnc1 [compound 44, Metyrapone] | 77.7 ± 2.4% |
| UNC2881 [compound 1] | 295.3 ± 15.8% |
